Test [1] addresses T1, human GR (Homo sapiens, UniProt P04150).
T1 sequence (P04150 1-777): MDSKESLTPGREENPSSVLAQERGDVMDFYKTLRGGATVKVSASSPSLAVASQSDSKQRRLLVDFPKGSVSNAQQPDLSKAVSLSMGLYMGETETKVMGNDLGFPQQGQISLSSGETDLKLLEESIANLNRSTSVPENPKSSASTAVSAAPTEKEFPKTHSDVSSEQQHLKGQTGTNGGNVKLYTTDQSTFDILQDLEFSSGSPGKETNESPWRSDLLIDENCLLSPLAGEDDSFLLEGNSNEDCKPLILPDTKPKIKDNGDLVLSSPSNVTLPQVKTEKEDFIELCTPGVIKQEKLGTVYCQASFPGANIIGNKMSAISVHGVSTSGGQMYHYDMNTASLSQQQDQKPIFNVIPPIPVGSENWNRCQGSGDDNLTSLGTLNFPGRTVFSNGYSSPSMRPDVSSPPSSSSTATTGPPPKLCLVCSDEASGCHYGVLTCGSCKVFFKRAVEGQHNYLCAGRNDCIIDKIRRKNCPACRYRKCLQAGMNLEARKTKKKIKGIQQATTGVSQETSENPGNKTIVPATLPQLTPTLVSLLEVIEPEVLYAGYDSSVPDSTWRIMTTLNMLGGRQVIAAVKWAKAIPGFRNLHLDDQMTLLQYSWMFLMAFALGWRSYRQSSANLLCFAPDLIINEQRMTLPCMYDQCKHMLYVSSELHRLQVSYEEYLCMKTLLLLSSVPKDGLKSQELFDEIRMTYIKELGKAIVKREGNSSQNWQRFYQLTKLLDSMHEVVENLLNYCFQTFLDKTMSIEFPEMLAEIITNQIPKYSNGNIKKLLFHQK
The test can be described thus: Transrepression Assay (GITAR), TNFα-β-lactamase reporter in U937 cells. It counts as cell-based. On the set-up: U937 cells contain an endogenous glucocorticoid receptor (GR); endogenous in cells; host or cells: U937 cells stably transfected with the TNF-alpha promoter/beta-lactamase reporter. Conditions: for GITAR > GRAMM % SEP: GITAR Emax minus GRAMMER Emax; for EC50: U937 cells, inflection point, read-out: Transrepression U937 Cells GITAR IP. The method in brief: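 Repression normalised to 100 nM dexamethasone (100%), measured with CCF2-AM β-lactamase substrate after 70–90 min at room temperature. Stably transfected U937 cells were exposed to compound 30–45 min, then to PMA (5 ng/ml final) plus LPS (100 ng/ml final) overnight (~18 hr), 37° C.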

The target in test [2] is T1, human GR. As to the kind of experiment: Trans-Activation Modulation of Glucocorticoid Receptor (GRAMMER), MMTV-LUC reporter, agonist mode. Conditions: for Emax: A549, A549 cells, maximum activity, read-out: Transactivation A549 Cells GRAMMER Emax; for EC50: A549 cells, inflection point, read-out: Transactivation A549 Cells GRAMMER IP. The test is classed as cell-based. Further details: endogenous in cells. The method in brief:
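Readout is luciferase from a modified MMTV LTR promoter after 24 h compound exposure alongside 10 nM dexamethasone (100% activity reference), DMSO ≤1%.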

[3] abbreviates: U-937, U937 cells, maximum activity, read-out: Transrepression U937 Cells GITAR Emax.
Where [4] appears, read: U-937, activity repressed by 100 nM dexamethasone alone set as 100%, read-out: maximal activity in the transrepression (GITAR) assay.

Each structure is given as a SMILES string.

For `C[C@]12Cc3cnn(-c4ccc(F)cc4)c3C=C1CC[C@@H]2CN(CCO)S(=O)(=O)c1cc(F)cc(F)c1` [Example 72], the “GITAR > GRAMM % SEP” value at human GR [1] came out at 25.5%. Further, the EC50 at human GR [1] came to 486 nM; on human GR [2], 475 nM. Also, the Emax is 60.8% at human GR [1] (setting [3]), over 5% on human GR [1] (setting [4]) and 35.3% on human GR [2].

On to `COC(=O)c1ccccc1S(=O)(=O)N(CCO)C[C@H]1CCC2=Cc3c(cnn3-c3ccc(F)cc3)C[C@@]21C` [Example 73, methyl 2-{[{[(4αR,5S)-1-(4-fluorophenyl)-4α-methyl-1,4,4α,5,6,7-hexahydrocyclopenta[f]indazol-5-yl]methyl}(2-hydroxyethyl)amino]sulfonyl}benzoate], for which the “GITAR > GRAMM % SEP” value on human GR [1] was found to be 56.0%. Also, the values for the EC50 on human GR [1] and at human GR [2] were 363 nM and 364 nM, respectively. Further, the Emax at human GR [1] (setting [3]) was 81.4%; at human GR [1] (setting [4]) it was over 5%; at human GR [2] it was 25.4%.

`C[C@]12Cc3cnn(-c4ccc(F)cc4)c3C=C1CC[C@@H]2CN(CCO)S(=O)(=O)c1ccc(Oc2ccccn2)cc1` [Example 74, N-{[(4αR,5S)-1-(4-fluorophenyl)-4α-methyl-1,4,4α,5,6,7-hexahydrocyclopenta[f]indazol-5-yl]methyl}-N-(2-hydroxyethyl)-4-(pyridin-2-yloxy)benzenesulfonamide]: at human GR [1], the “GITAR > GRAMM % SEP” value was determined as 9.9%. Besides, the figures for the EC50 on human GR [1] and on human GR [2] were 1140 nM and 1030 nM, respectively. Also, the Emax was 44.1% on human GR [1] (setting [3]), over 5% on human GR [1] (setting [4]) and 34.1% at human GR [2].

Regarding `C[C@]12Cc3cnn(-c4ccc(F)cc4)c3C=C1CC[C@@H]2CN(CCO)S(=O)(=O)Cc1ccccc1` [Example 75, N-{[(4αR,5S)-1-(4-fluorophenyl)-4α-methyl-1,4,4α,5,6,7-hexahydrocyclopenta[f]indazol-5-yl]methyl}-N-(2-hydroxyethyl)-1-phenylmethanesulfonamide], the “GITAR > GRAMM % SEP” value at human GR [1] is given as 14.4%. Moreover, the values for the EC50 on human GR [1] and at human GR [2] were 473 nM and 450 nM, respectively. The Emax at human GR [1] (setting [3]) was 28.8%; at human GR [1] (setting [4]), over 5%; on human GR [2], 14.4%.

Regarding `CNC(=O)Nc1ccc(S(=O)(=O)N(CCO)C[C@H]2CCC3=Cc4c(cnn4-c4ccc(F)cc4)C[C@@]32C)c(Cl)c1` [Example 76, 2-chloro-N-{[(4αR,5S)-1-(4-fluorophenyl)-4α-methyl-1,4,4α,5,6,7-hexahydrocyclopenta[f]indazol-5-yl]methyl}-N-(2-hydroxyethyl)-4-{[(methylamino)carbonyl]amino}-benzenesulfonamide], the “GITAR > GRAMM % SEP” value on human GR [1] was 9.5%. In addition, the EC50 was determined as 2110 nM at human GR [1] and 1960 nM at human GR [2]. Moreover, the Emax at human GR [1] (setting [3]) was 13%; on human GR [1] (setting [4]) it was over 5%; at human GR [2], 3.5%.

For the compound `Cc1ccccc1S(=O)(=O)N(CCO)C[C@H]1CCC2=Cc3c(cnn3-c3ccc(F)cc3)C[C@@]21C` [Example 77, N-{[(4αR,5S)-1-(4-fluorophenyl)-4α-methyl-1,4,4α,5,6,7-hexahydrocyclopenta[f]indazol-5-yl]methyl}-N-(2-hydroxyethyl)-2-methylbenzenesulfonamide], the “GITAR > GRAMM % SEP” value at human GR [1] was 25.7%. For the same compound, the EC50 on human GR [1] came out at 1130 nM; on human GR [2], 901 nM. The Emax at human GR [1] (setting [3]) is 43.6%; on human GR [1] (setting [4]) it was over 5%; at human GR [2], 17.9%.

Regarding `C[C@]12Cc3cnn(-c4ccc(F)cc4)c3C=C1CC[C@@H]2CN(CCO)S(=O)(=O)c1ccccc1C#N` [Example 78, 2-cyano-N-{[(4αR,5S)-1-(4-fluorophenyl)-4α-methyl-1,4,4α,5,6,7-hexahydrocyclopenta[f]indazol-5-yl]methyl}-N-(2-hydroxyethyl)benzenesulfonamide], the “GITAR > GRAMM % SEP” value on human GR [1] is listed as 15.9%. In addition, the results for the EC50 on human GR [1] and at human GR [2] were 883 nM and 652 nM, respectively. The Emax at human GR [1] (setting [3]) was 66.5%; at human GR [1] (setting [4]), over 5%; at human GR [2], 50.6%.

Take `C[C@]12Cc3cnn(-c4ccc(F)cc4)c3C=C1CC[C@@H]2CN(CCO)S(=O)(=O)c1ccc(Oc2ccccc2)cc1` [Example 79, N-{[(4αR,5S)-1-(4-fluorophenyl)-4α-methyl-1,4,4α,5,6,7-hexahydrocyclopenta[f]indazol-5-yl]methyl}-N-(2-hydroxyethyl)-4-phenoxybenzenesulfonamide]: at human GR [1], the “GITAR > GRAMM % SEP” value stood at 64.3%. The EC50 on human GR [1] worked out at 1950 nM; on human GR [2], 1320 nM. Besides, the Emax at human GR [1] (setting [3]) was 71.8%; at human GR [1] (setting [4]), over 5%; at human GR [2] it was 7.5%.

For `C[C@]12Cc3cnn(-c4ccc(F)cc4)c3C=C1CC[C@@H]2CN(CCO)S(=O)(=O)c1cc(C(F)(F)F)ccc1Cl` [Example 80, 2-chloro-N-{[(4αR,5S)-1-(4-fluorophenyl)-4α-methyl-1,4,4α,5,6,7-hexahydrocyclopenta[f]indazol-5-yl]methyl}-N-(2-hydroxyethyl)-5-(trifluoromethyl)benzenesulfonamide], the “GITAR > GRAMM % SEP” value on human GR [1] is reported as 64.0%. For the same compound, the EC50 at human GR [1] was found to be 2580 nM; on human GR [2], 1140 nM. Further, the results for the Emax at human GR [1] (setting [3]), on human GR [1] (setting [4]) and at human GR [2] were 70%, over 5% and 6%, respectively.

In the case of `C[C@]12Cc3cnn(-c4ccc(F)cc4)c3C=C1CC[C@@H]2CN(CCO)S(=O)(=O)c1ccccc1Cl` [Example 81, 2-chloro-N-{[(4αR,5S)-1-(4-fluorophenyl)-4α-methyl-1,4,4α,5,6,7-hexahydrocyclopenta[f]indazol-5-yl]methyl}-N-(2-hydroxyethyl)benzenesulfonamide], the “GITAR > GRAMM % SEP” value at human GR [1] was found to be 59.5%. The figures for the EC50 at human GR [1] and at human GR [2] were 959 nM and 461 nM, respectively. The Emax is 76.7% on human GR [1] (setting [3]), over 5% at human GR [1] (setting [4]) and 17.2% at human GR [2].

As for `C[C@]12Cc3cnn(-c4ccc(F)cc4)c3C=C1CC[C@@H]2CN(CCO)S(=O)(=O)c1ccc(F)cc1F` [Example 82, 2,4-difluoro-N-{[(4αR,5S)-1-(4-fluorophenyl)-4α-methyl-1,4,4α,5,6,7-hexahydrocyclopenta[f]indazol-5-yl]methyl}-N-(2-hydroxyethyl)benzenesulfonamide], the “GITAR > GRAMM % SEP” value on human GR [1] is listed as 29.1%. For the same compound, the results for the EC50 at human GR [1] and on human GR [2] were 220 nM and 287 nM, respectively. The figures for the Emax on human GR [1] (setting [3]), at human GR [1] (setting [4]) and on human GR [2] were 90.2%, over 5% and 61.1%, respectively.

Turning to `Cc1nn(C)c(Cl)c1S(=O)(=O)N(CCO)C[C@H]1CCC2=Cc3c(cnn3-c3ccc(F)cc3)C[C@@]21C` [Example 83, 5-chloro-N-{[(4αR,5S)-1-(4-fluorophenyl)-4α-methyl-1,4,4α,5,6,7-hexahydrocyclopenta[f]indazol-5-yl]methyl}-N-(2-hydroxyethyl)-1,3-dimethyl-1H-pyrazole-4-sulfonamide], the “GITAR > GRAMM % SEP” value on human GR [1] came to 52.6%. Further, the EC50 on human GR [1] is 1320 nM; at human GR [2], 568 nM. Besides, the results for the Emax at human GR [1] (setting [3]), on human GR [1] (setting [4]) and on human GR [2] were 59.5%, over 5% and 6.9%, respectively.

Turning to `C[C@]12Cc3cnn(-c4ccc(F)cc4)c3C=C1CC[C@@H]2CN(CCO)S(=O)(=O)c1ccccc1-c1ccccc1` [Example 84, N-{[(4αR,5S)-1-(4-fluorophenyl)-4α-methyl-1,4,4α,5,6,7-hexahydrocyclopenta[f]indazol-5-yl]methyl}-N-(2-hydroxyethyl)biphenyl-2-sulfonamide], the “GITAR > GRAMM % SEP” value at human GR [1] is on record as 66.3%. The EC50 at human GR [1] is 799 nM; on human GR [2], 442 nM. Besides, the Emax is 86% on human GR [1] (setting [3]), over 5% at human GR [1] (setting [4]) and 19.7% at human GR [2].

As for `CC(=O)Nc1ccc(S(=O)(=O)N(CCO)C[C@H]2CCC3=Cc4c(cnn4-c4ccc(F)cc4)C[C@@]32C)cc1` [Example 85, N-(4-{[{[(4αR,5S)-1-(4-fluorophenyl)-4α-methyl-1,4,4α,5,6,7-hexahydrocyclopenta[f]indazol-5-yl]methyl}(2-hydroxyethyl)amino]sulfonyl}phenyl)acetamide], the “GITAR > GRAMM % SEP” value at human GR [1] is 37.1%. Further, the EC50 at human GR [1] was 4230 nM; on human GR [2], 73.7 nM. The Emax on human GR [1] (setting [3]) is 38.8%; on human GR [1] (setting [4]), over 5%; on human GR [2], 1.6%.

The record behind these values is patent US8299048B2, “Hexahydrocyclopentyl[f]indazole sulfonamides and derivatives thereof as selective glucocorticoid receptor modulators” (Merck Sharp & Dohme Corp., priority 2008, dated 2012).
